Activity calls are given as the source filed them. No cut-off for these calls is given here.

Data set [1] has as its target T1, Histone deacetylase 1 (Homo sapiens, UniProt Q13547). The data set can be described thus: Inhibition of HDAC1 in HEL cells assessed as increase in acetyl-H3 levels at 20 to 100 nM incubated for 24 hrs by western blot analysis. Type of data set: cell-based. The note with it: dose 20-100 nM.
A further data set deals with MCF7. The data set can be described thus: Antiproliferative activity against human MCF7 cells assessed as cell growth inhibition incubated for 8 hrs by CCK8 assay. Format: functional, cell-based. As to conditions: MCF7, 8 h.
In the next data set the test system is A549. The data set can be described thus: Antiproliferative activity against human A549 cells assessed as cell growth inhibition incubated for 8 hrs by CCK8 assay. The note with it: A549, 8 h. Format: functional, cell-based. A general note: Formazan colour is commonly taken as a measure of viable cells.
A further data set addresses T2, Histone deacetylase 8 (Homo sapiens, UniProt Q9BY41).
T2 sequence (Q9BY41 whole entry): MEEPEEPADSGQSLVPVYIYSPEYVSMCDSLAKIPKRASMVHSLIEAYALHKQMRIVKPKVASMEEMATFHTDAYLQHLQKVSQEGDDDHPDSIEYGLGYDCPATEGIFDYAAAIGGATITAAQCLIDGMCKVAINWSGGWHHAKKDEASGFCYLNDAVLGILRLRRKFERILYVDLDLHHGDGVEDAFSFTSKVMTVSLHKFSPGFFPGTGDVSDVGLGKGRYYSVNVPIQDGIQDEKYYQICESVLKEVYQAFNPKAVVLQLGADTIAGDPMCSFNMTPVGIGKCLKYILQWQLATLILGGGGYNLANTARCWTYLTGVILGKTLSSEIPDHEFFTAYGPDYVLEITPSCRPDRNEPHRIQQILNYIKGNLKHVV
The data set can be described thus: Inhibition of full-length recombinant C-terminal His-tagged human HDAC8 expressed in baculovirus infected Sf9 insect cells using Ac-Leu-Gly-Lys(Tfa)-AMC as substrate preincubated for 5 mins followed by substrate addition and further incubated for 30 mins by fluorescence based microtiter plate reader assay.

In data set [2] the target is T3, DNA topoisomerase 1 (Homo sapiens) (UniProt P11387).
T3 sequence (whole entry): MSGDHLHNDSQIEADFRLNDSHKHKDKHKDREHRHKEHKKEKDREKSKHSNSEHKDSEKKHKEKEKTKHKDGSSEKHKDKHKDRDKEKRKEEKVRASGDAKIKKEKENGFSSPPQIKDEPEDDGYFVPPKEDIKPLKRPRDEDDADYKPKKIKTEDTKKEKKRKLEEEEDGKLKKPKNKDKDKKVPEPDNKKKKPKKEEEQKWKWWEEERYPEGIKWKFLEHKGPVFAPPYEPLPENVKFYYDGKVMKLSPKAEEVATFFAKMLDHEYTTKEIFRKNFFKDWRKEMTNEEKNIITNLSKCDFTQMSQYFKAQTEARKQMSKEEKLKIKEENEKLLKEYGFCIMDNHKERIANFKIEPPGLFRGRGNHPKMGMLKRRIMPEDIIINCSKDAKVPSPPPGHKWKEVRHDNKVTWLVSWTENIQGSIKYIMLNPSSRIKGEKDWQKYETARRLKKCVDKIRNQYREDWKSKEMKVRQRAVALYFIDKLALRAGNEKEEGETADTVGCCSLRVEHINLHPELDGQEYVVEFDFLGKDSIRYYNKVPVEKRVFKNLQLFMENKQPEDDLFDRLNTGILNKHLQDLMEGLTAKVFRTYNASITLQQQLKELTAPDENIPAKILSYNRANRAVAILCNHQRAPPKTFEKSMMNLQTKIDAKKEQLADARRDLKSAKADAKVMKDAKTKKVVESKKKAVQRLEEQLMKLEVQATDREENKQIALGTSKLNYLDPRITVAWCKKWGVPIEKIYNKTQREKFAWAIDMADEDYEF
The data set can be described thus: Inhibition of recombinant Top1 (unknown origin) assessed as inhibition of relaxation of supercoiled pBR322 plasmid DNA at 100 uM incubated for 15 mins by ethidium bromide staining based agarose gel electrophoresis analysis.

In data set [3] the test system is HEL. Nature of the data set: Induction of cell cycle arrest in HEL cells assessed as change in S-phase ratio at 0.1 uM incubated for 48 hrs by PI staining based flow cytometry relative to control. Type of data set: functional, Homo sapiens. (Flow cytometry measures light scatter and fluorescence of single cells or particles in a stream.)
In a further data set the target is Histone deacetylase 2 (Homo sapiens, UniProt Q92769). Nature of the data set: In vivo inhibition of HDAC2 in HEL cells xenografted in BALB/C mouse assessed as upregulation of acetyl-H4 levels at 5 to 10 mg/kg by immunohistochemical staining method. Format: functional, organism-based. As to conditions: dose 5-10 mg/kg.
Data set [4] relates to HEL. The data set can be described thus: Antitumor activity against HEL cells xenografted in BALB/C mouse assessed as T/C value at 10 mg/kg, po qd for 14 days consecutively by caliper method relative to control. Format: functional, Homo sapiens. As to conditions: time 14 day.
Data set [5] deals with HEL. Nature of the data set: Induction of apoptosis in HEL cells assessed as apoptotic cells at 0.1 uM incubated for 48 hrs by annexin V-FITC/PI staining based flow cytometry (reference value: 3.95%). Type of data set: functional, Homo sapiens.
The nature of data set [6]: Metabolic stability in ICR mouse liver microsome assessed as half life. Type of data set: ADME. As to conditions: liver microsomes. (Liver microsomes are a subcellular fraction often used to study metabolism.)
The test system of data set [7] is HEL. The data set can be described thus: Antitumor activity against HEL cells xenografted in BALB/C mouse assessed as T/C value at 5 mg/kg, po qd for 14 days consecutively by caliper method relative to control. As to conditions: time 14 day. Format: functional, Homo sapiens.
Data set [8] has as its system HEL. Nature of the data set: Antitumor activity against HEL cells xenografted in BALB/C mouse assessed as tumor growth inhibition at 10 mg/kg, po qd for 14 days consecutively by caliper method relative to control. Format: functional, Homo sapiens. As to conditions: 336 h, time 14 day, read-out: TGI.
Data set [9] deals with Histone deacetylase (Homo sapiens) (UniProt Q13547+O15379+Q9UBN7+Q92769+Q9UQL6+Q8WUI4+Q9BY41+Q96DB2+P56524+Q9UKV0+Q969S8). The data set can be described thus: In vivo inhibition of HDAC in HEL cells xenografted in BALB/C mouse assessed as upregulation of caspase-9 levels at 5 to 10 mg/kg by immunohistochemical staining method. Format: functional, organism-based. As to conditions: dose 5-10 mg/kg.

Data set [10] has as its target T1, Histone deacetylase 1. Nature of the data set: In vivo inhibition of HDAC1 in HEL cells xenografted in BALB/C mouse assessed as upregulation of acetyl-H3 levels at 5 to 10 mg/kg by immunohistochemical staining method. As to conditions: dose 5-10 mg/kg. Type of data set: functional, organism-based.
Data set [11] concerns HEL. The data set can be described thus: Antitumor activity against HEL cells xenografted in BALB/C mouse assessed as tumor growth inhibition at 5 mg/kg, po qd for 14 days consecutively by caliper method relative to control. Format: functional, Homo sapiens. The note with it: 336 h, time 14 day, read-out: TGI.
The subject of data set [12] is HEL. Nature of the data set: Induction of cell cycle arrest in HEL cells assessed as change in S-phase ratio at 0.02 uM incubated for 48 hrs by PI staining based flow cytometry relative to control. Type of data set: functional, Homo sapiens.
The nature of data set [13]: Toxicity in BALB/C mouse xenografted with HEL cells assessed as animal death at 5 to 10 mg/kg, po qd for 14 days consecutively. The note with it: in vivo, 336 h, dose 5-10 mg/kg, time 14 day. Type of data set: organism-based.
In data set [14] the test system is HEL. The data set can be described thus: Induction of apoptosis in HEL cells assessed as apoptotic cells at 0.5 uM incubated for 48 hrs by annexin V-FITC/PI staining based flow cytometry (reference value: 4.23%). Type of data set: functional, Homo sapiens.
The nature of data set [15]: Metabolic stability in ICR mouse liver microsome assessed as clearance. Type of data set: ADME. As to conditions: microsomes.
A short description of data set [16]: Toxicity in BALB/C mouse xenografted with HEL cells assessed as change in body weight at 5 to 10 mg/kg, po qd for 14 days consecutively. Type of data set: organism-based. The note with it: in vivo, 336 h, dose 5-10 mg/kg, time 14 day.
Data set [17] has as its system HEL. The data set can be described thus: Induction of cell cycle arrest in HEL cells assessed as change in S-phase ratio at 0.5 uM incubated for 48 hrs by PI staining based flow cytometry relative to control. Type of data set: functional, Homo sapiens.

T1 sequence (Q13547 whole entry): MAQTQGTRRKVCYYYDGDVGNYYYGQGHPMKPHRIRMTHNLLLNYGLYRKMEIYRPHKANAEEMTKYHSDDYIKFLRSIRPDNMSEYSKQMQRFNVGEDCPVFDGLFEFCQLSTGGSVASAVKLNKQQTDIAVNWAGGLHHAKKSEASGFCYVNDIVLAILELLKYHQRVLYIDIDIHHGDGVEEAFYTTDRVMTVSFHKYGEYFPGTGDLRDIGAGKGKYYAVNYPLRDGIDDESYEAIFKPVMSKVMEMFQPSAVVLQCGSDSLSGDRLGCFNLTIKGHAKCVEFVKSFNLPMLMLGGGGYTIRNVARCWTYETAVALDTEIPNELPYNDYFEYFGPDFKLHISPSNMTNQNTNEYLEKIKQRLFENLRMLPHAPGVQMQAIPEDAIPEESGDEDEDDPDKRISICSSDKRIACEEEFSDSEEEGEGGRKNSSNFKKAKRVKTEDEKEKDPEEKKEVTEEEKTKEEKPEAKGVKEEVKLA
Sequence of Histone deacetylase 2 (Q92769 whole entry): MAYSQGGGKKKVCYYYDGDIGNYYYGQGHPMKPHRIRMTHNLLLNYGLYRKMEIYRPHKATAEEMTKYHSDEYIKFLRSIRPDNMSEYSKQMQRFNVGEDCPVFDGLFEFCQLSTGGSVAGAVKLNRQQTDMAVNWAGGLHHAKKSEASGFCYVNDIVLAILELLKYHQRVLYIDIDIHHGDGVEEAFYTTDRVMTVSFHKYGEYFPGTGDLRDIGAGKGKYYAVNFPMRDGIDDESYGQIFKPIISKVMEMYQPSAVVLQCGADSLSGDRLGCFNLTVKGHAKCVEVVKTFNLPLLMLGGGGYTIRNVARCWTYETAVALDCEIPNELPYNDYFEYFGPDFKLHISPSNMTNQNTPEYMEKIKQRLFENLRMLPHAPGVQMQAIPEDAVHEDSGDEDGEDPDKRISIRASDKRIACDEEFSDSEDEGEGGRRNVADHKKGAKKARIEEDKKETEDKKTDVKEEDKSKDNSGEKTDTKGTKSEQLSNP

In the case of `CN1c2ccc(F)cc2C(=O)N2CCc3c([nH]c4ccc(OCc5ccc(/C=C/C(=O)Nc6ccccc6N)cc5)cc34)C21` (stereo unspecified), the inhibition entry (on Histone deacetylase 1 [1]; in [2]) was “Active” throughout. Further, the IC50 in the data set on MCF7 is > 2000 nM; in the data set with A549 it was 930 nM; on Histone deacetylase 8, 690 nM.
Turning to `CN1c2ccc(F)cc2C(=O)N2CCc3c([nH]c4ccc(OCc5ccc(/C=C/C(=O)NO)cc5)cc34)C21` (stereo unspecified), the Activity in the data set on HEL [3] is 15.4%; in the data set on HEL [5] it was 56.02%; in the data set with HEL [12], 9.8%; in data set [13], “Non-Toxic”; in the data set on HEL [14], 76.45%; in data set [16], “Non-Toxic”. Moreover, the Activity in the data set with HEL [17] was 25.8%. The inhibition result (on Histone deacetylase 2; on Histone deacetylase 1 [1]; in data set [9]; at Histone deacetylase 1 [10]; in data set [2]) was “Active” each time. Also, the T/C was found to be 25.5% in the data set on HEL [4] and 54.3% in the data set on HEL [7]. For the same compound, the half-life in [6] was determined as 31.5 min. The inhibition in vivo at 10 mg/kg in the data set on HEL [8] is 68.5%. Further, the IC50 in the data set with MCF7 is > 2000 nM; in the data set with A549, 680 nM; on Histone deacetylase 8, 9800 nM. The inhibition in vivo at 5 mg/kg in the data set on HEL [11] is 41.4%. Also, the CLH in data set [15] came out at 173 mL/min/kg.

By IC50 is commonly meant the concentration needed to halve the response being measured. By T/C is commonly meant the result in the treated group divided by that in the control group, in per cent. As a reminder, the half-life is how long it takes for the measured level to halve.

The record behind these values is ChEMBL document CHEMBL5046291, “Evodiamine-Inspired Topoisomerase-Histone Deacetylase Dual Inhibitors: Novel Orally Active Antitumor Agents for Leukemia Therapy” (J Med Chem, 2022).
